In US7034026B2, “Inhibitors of Akt activity” (Merck & Co., Inc., priority 2001, dated 2006) one finds IC50 data, which are given here for two compounds.

This assay deals with PKC (mix of isoforms). Briefly: PKC assay (counter screen). The note with it: myelin basic protein substrate, 10 μM ATP; read-out: Counter screens IC50 (μM) PKC. The assay is classed as biochemical. Here is the method:
Final assay concentrations were as follows: 0.25 mM EGTA, 0.4 mM CaCl, 20 mM Tris pH 7.5, 10 mM MgCl, 1 mM 2-mercaptoethanol, 0.32 mg/ml phosphatidylserine, 0.032 mg/ml diacylglycerol, 10 μM ^33P-ATP, 70 μg/ml MBP, 10 ng/ml PKC, 0.1 mg/ml BSA.
Assays are performed using 96 deep well assay plates. In each assay well 10 μl of solvent control or appropriate inhibitor dilution with 5 μl ^33P-ATP (components #5 and #3) were premixed. […] The liquid in the assay wells was thoroughly mixed and the assay reactions incubated for 20 minutes at room temperature. The reactions were stopped by adding 100 mM EDTA (50 μl) and 100 mM sodium pyrophosphate (50 μl) and mixing. Phosphorylated MBP was collected on PVDF membranes in 96 well filter plates and quantitated by scintillation counting.

What is called IC50 is the point on the concentration scale where inhibition reaches its midpoint.

For `Nc1ccc(-c2nc3ccccc3nc2-c2ccc(N)cc2)cc1` [Compound 2, 2,3-bis(4-aminophenyl)-quinoxaline], the IC50 is over 80 µM. On to `CC(C)(N)c1ccc(-c2nc3ccccc3nc2-c2ccccc2)cc1` [Compound 1, 2-[4-(2-aminoprop-2-yl)phenyl]-3-phenylquinoxaline], for which the IC50 is over 80 µM.
